# Experimental data reported in PMC5540490, “Plasma concentrations of caspofungin in a critically ill patient with morbid obesity” (Critical Care, 2017).
# Where two headings read alike, the source gives them in different places.
# Assays:
# [1] = Clinical course and tolerability of caspofungin treatment in the patient; type: in vivo, human; conditions: 100 mg/day for 14 days; one patient
# From the text: (§1) A morbidly obese person (BMI = 50 kg/m^2) was admitted to our ICU after surgical treatment of anastomotic leak in the postoperative period of elective laparoscopic bariatric surgery. The patient was in septic shock, with Candida multicolonization and other risk factors of invasive candidiasis. We decided to start antimicrobial treatment, including meropenem, linezolid and caspofungin. With the intention of maximizing the potential effectiveness of antifungal treatment, caspofungin at a dose of 100 mg/day was chosen. The caspofungin dose was calculated using a population pharmacokinetic model. Target AUC/MIC was set at 860 and therefore AUC values above 107 mg*h/L were necessary assuming MIC = 0.125 mg/L [2]. […] The manufacturer recommends caspofungin dose reduction when AUC values are above 210 mg*h/L and, accordingly, drug exposure was considered safe.
# [2] = Plasma/serum concentrations of caspofungin in a critically ill patient with morbid obesity; type: in vivo; conditions: male, human, plasma, 100 mg/day; for Cmax: read-out: Cpeak
# From the text: The aim of the study was to describe the pharmacokinetic behaviour of caspofungin in a critically ill patient with morbid obesity who received doses of caspofungin higher than labelled doses.
# as §1
# [3] = three days later, one morbidly obese ICU patient
smiles,measurement,setting,value
CC[C@H](C)C[C@H](C)CCCCCCCCC(=O)N[C@H]1C[C@@H](O)[C@@H](NCCN)NC(=O)[C@@H]2[C@@H](O)CCN2C(=O)[C@H]([C@H](O)CCN)NC(=O)[C@H]([C@H](O)[C@@H](O)c2ccc(O)cc2)NC(=O)[C@@H]2C[C@@H](O)CN2C(=O)[C@H]([C@@H](C)O)NC1=O [caspofungin],Adverse effects related to the drug,[1],without any adverse effects
same,AUC,"[2]; after the first dose, one morbidly obese ICU patient",116 µg·h/mL
same,Cmax,"[2]; after the first dose, one morbidly obese ICU patient (BMI 50 kg/m^2) in septic shock",4510 ng/mL
same,AUC,[2]; [3],140 µg·h/mL
same,Cmax,[2]; [3],5970 ng/mL
same,level at 72 h,"[2]; three days later, one morbidly obese ICU patient, read-out: Ctrough",1760 ng/mL
